Laboratory results: patent publication US10954237B2, “JAK inhibitors containing a 4-membered heterocyclic amide” (THERAVANCE BIOPHARMA R&D IP, LLC, priority 2017, dated 2021)

How the values were obtained:
[1] = Pharmacokinetics in plasma and lung in mouse; assay type: in vivo; conditions: oral aspiration, lung AUC / plasma AUC
[2] = tested on: IFNγ induced CXCL10 secretion; experiment: IFNγ induced CXCL10 in human 3D airway cultures; assay type: cell-based
Experimental: EpiAirway tissue cultures were obtained from Mattek (AIR-100). Cultures were derived from asthmatic donors. In a cell culture insert, human derived tracheal/bronchial epithelial cells were grown and differentiated on a porous membrane support, allowing an air-liquid interface with warmed culture medium below the cells and a gaseous test atmosphere above. Tissues were cultured in maintenance media (Mattek, AIR-100-MM) in a 37° C., 5% CO2 humidified incubator. Four donors were tested. On Day 0, tissue cultures were treated with test compounds at 10 μM, 1 μM and/or 0.1 μM. Compounds were diluted in dimethyl sulfoxide (DMSO, Sigma) to a final concentration of 0.1%. DMSO at 0.1% was used as a vehicle control. Test compounds were incubated with cultures for 1 hour at 37° C., 5% CO2, followed by the addition of pre-warmed media containing IFNγ (R&D Systems) or IL-27 (R&D Systems) at a final concentration at 100 ng/ml. Tissue cultures were maintained for 8 days. Media was replaced every 2 days with fresh media containing compounds and IFNγ or IL-27. On Day 8, tissue cultures and supernatants were collected for analysis. […] Data is expressed as % Inhibition+/−standard deviation (±STDV). Percent inhibition was determined by compound inhibitory potency against IFNγ or IL-27 induced CXCL10 or CXCL9 secretion compared to vehicle treated cells. […]

[3] = tested on: IL-2/anti-CD3 stimulated IFNγ in human PBMCs; experiment: Inhibition of IL-2/anti-CD3 stimulated IFNγ in human PBMCs; assay type: cell-based
Experimental: The potency of the test compound for inhibition of interleukin-2 (IL-2)/anti-CD3 stimulated interferon gamma (IFNγ) was measured in human peripheral blood mononuclear cells (PBMCs) isolated from human whole blood (Stanford Blood Center). Because IL-2 signals through JAK, this assay provides a measure of JAK cellular potency.
(1) Human peripheral blood mononuclear cells (PBMC) were isolated from human whole blood of healthy donors using a ficoll gradient. Cells were cultured in a 37° C., 5% CO2 humidified incubator in RPMI (Life Technologies) supplemented with 10% Heat Inactivated Fetal Bovine Serum (FBS, Life Technologies), 2 mM Glutamax (Life Technologies), 25 mM HEPES (Life Technologies) and 1× Pen/Strep (Life Technologies). Cells were seeded at 200,000 cells/well in media (50 μL) and cultured for 1 h. Compounds were serially diluted in DMSO and then diluted another 500-fold (to a 2× final assay concentration) in media. […]
(2) After cytokine stimulation, cells were centrifuged at 500 g for 5 min and supernatants removed and frozen at −80° C. To determine the inhibitory potency of the test compound in response to IL-2/anti-CD3, supernatant IFNγ concentrations were measured via ELISA (R&D Systems). IC50 values were determined from analysis of the inhibition curves of concentration of IFNγ vs compound concentration. Data are expressed as pIC50 (negative decadic logarithm IC50) values.

[4] = tested on: IL-6 stimulated STAT3 phosphorylation in CD3+ T cells; experiment: Inhibition of IL-6 stimulated pSTAT3 in CD3+ T cells; assay type: cell-based, human
Text: A protocol analogous to that of Assay 10 was used to determine the potency of the test compound for inhibition of interleuken-6 (IL-6) stimulated STAT3 phosphorylation. An Alexa Fluor 647 conjugated anti-pSTAT3 antibody (pY705, Clone 4/P, BD Biosciences) was used to detect STAT3 phosphorylation.

[5] = tested on: IL-5 mediated survival of human eosinophils; experiment: IL-5 mediated eosinophil survival assay; assay type: cell-based
Experimental: The potency of the test compound for IL-5 mediated eosinophil survival was measured in human eosinophils isolated from human whole blood (AllCells). Because IL-5 signals through JAK, this assay provides a measure of JAK cellular potency.
Human eosinophils were isolated from fresh human whole blood (AllCells) of healthy donors. Blood was mixed with 4.5% Dextran (Sigma-Aldrich) in a 0.9% sodium chloride solution (Sigma-Aldrich). Red blood cells were left to sediment for 35 minutes. The leukocyte rich upper layer was removed and layered over Ficoll-Paque (GE Healthcare) and centrifuged at 600 g for 30 minutes. The plasma and mononuclear cell layers were removed before the granulocyte layer was lysed with water to remove any contaminating red blood cells. […] Purity was analyzed using a LSRII flow cytometer (BD Biosciences). […]
After cytokine stimulation, cells were centrifuged at 300 g for 5 min and washed twice with cold DPBS (Life Technologies). To access viability and apoptosis, cells were incubated with Propidium Iodide (Thermo Fisher Scientific) and APC Annexin V (BD Biosciences) and analyzed using a LSRII flow cytometer (BD Biosciences). IC50 values were determined from analysis of the viability curves of percent cell viability vs compound concentration. Data are expressed as pIC50 (negative decadic logarithm IC50) values.

Row | Structure (SMILES) | Lung to Plasma ratio Assay 3 [1] | inhibition at 10 µM [2] | anti-CD3 and IL-2 induced release of IFNγ from activated human peripheral blood-isolated T cells (in words) [3] | IL-6 signaling (in words) [4] | IL-5 mediated human eosinophil survival (in words) [5]
1 | CCCN1Cc2[nH]c(-c3n[nH]c4cc(-c5cc(F)c(O)cc5CC)ccc34)nc2C[C@H]1C(=O)N1CC(N(C)C)C1 [Example 4, (S)-(3-(dimethylamino)azetidin-1-yl)(2-(6-(2-ethyl-5-fluoro-4-hydroxyphenyl)-1H-indazol-3-yl)-5-propyl-4,5,6,7-tetrahydro-3H-imidazo[4,5-c]pyridin-6-yl)methanone] | C (C denotes a ratio between 20 and 50) |  |  |  | 
2 | CCc1cc(O)c(F)cc1-c1ccc2c(-c3nc4c([nH]3)CN(C(C)C)[C@H](C(=O)N3CC(N(C)C)C3)C4)n[nH]c2c1 [Example 2, (S)-(3-(dimethylamino)azetidin-1-yl)(2-(6-(2-ethyl-5-fluoro-4-hydroxyphenyl)-1H-indazol-3-yl)-5-isopropyl-4,5,6,7-tetrahydro-3H-imidazo[4,5-c]pyridin-6-yl)methanone] |  | 101% | inhibit | inhibit | potently inhibit
